{
  "source": "patent US7666875B2",
  "about": "“Hydantoin compounds” (Eisai R&D Management Co., Ltd., priority 2005, dated 2010)",
  "data": [
    {"target": "T1, human T-bet (Homo sapiens, UniProt Q9UL17)", "T1 construct": "expressed in transfected cells; host or cells: engineered HEK cells (HEKT-bet)", "T1 sequence (Q9UL17 1-535)": "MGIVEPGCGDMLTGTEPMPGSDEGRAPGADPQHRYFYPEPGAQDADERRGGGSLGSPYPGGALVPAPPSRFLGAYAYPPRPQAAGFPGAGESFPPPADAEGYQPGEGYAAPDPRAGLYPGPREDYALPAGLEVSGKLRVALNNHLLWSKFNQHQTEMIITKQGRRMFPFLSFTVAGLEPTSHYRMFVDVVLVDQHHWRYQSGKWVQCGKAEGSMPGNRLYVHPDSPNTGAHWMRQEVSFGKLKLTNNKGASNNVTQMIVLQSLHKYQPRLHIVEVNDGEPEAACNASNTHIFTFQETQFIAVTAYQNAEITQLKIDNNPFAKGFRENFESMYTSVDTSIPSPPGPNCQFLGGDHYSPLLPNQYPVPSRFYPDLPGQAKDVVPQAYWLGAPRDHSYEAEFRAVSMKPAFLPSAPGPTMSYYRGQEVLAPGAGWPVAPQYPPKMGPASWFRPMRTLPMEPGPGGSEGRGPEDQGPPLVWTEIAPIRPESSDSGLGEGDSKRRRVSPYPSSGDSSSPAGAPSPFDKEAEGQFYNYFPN", "test": "HEKT-bet-luc assay (T-bet dependent luciferase reporter in engineered HEK cells)", "type": "cell-based", "settings": "Table 2; HEKT-bet cells, compound 24 hours; IC50 normalized to reference ER-213038; read-out: IC50", "procedure,_shortened": "(§1)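 HEK cells expressing human T-bet and a T-box element–luciferase reporter were treated with compound for 24 h, then luciferase was read by luminescence. IC50 was scaled between uninhibited signal and maximal inhibition, then normalized to a same-plate reference compound multiplied by its established potency.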", "units": {"IC50": "nM"}, "values": [
      {"smiles": "COc1cc(CN2CCC3(CC2)C(=O)N(C/C=C/c2ccccc2)C(=O)N3Cc2ccc(-n3cccn3)cc2)cc(OC)c1", "note": "[compound 41]", "IC50": 45},
      {"smiles": "COc1cc(CN2CCC3(CC2)C(=O)N(C/C=C/c2ccccc2)C(=O)N3CCO)cc(OC)c1", "note": "[compound 45]", "IC50": 62}
    ]},
    {"target": "T1, human T-bet", "test": "HEKT-bet-luc assay (T-bet dependent luciferase reporter in engineered HEK cells)", "type": "cell-based", "settings": "Table 4; HEKT-bet cells, compound 24 hours; IC50 normalized to reference ER-213038; read-out: IC50", "procedure,_shortened": "as §1", "units": {"IC50": "nM"}, "values": [
      {"smiles": "COc1cccc(CN2C(=O)N(Cc3ccccn3)C3(CCN(Cc4cccc5ccccc45)CC3)C2=O)c1", "note": "[Example 241]", "IC50": 424},
      {"smiles": "COCCN1C(=O)N(Cc2cccc(OC)c2)C(=O)C12CCN(Cc1cccc3cccnc13)CC2", "note": "[Example 242]", "IC50": 424},
      {"smiles": "COCCN1C(=O)N(Cc2cccc(-c3ccccc3)c2)C(=O)C12CCN(Cc1ccccc1)CC2", "note": "[Example 243]", "IC50": 431},
      {"smiles": "COCCN1C(=O)N(Cc2cccc(OC)c2)C(=O)C12CCN(Cc1cc(OC)c3c(c1)OCO3)CC2", "note": "[Example 244]", "IC50": 432},
      {"smiles": "COCCN1C(=O)N(Cc2cccc(OC)c2)C(=O)C12CCN(Cc1nn(-c3ccccc3)nc1C)CC2", "note": "[Example 245]", "IC50": 432},
      {"smiles": "COCCN1C(=O)N(CCCC2CCCCC2)C(=O)C12CCN(Cc1ccccc1)CC2", "note": "[Example 246]", "IC50": 435},
      {"smiles": "O=C1N(C/C=C/c2ccccc2)C(=O)C2(CCN(Cc3cccc4ccccc34)CC2)N1Cc1cccc2cccnc12", "note": "[Example 247]", "IC50": 436},
      {"smiles": "COCCN1C(=O)N(CCCc2ccccc2)C(=O)C12CCN(Cc1cccc(C)c1)CC2", "note": "[Example 248]", "IC50": 438},
      {"smiles": "COCCCN1C(=O)N(Cc2cccc(OC)c2)C(=O)C12CCN(Cc1cc(OC)cc(OC)c1)CC2", "note": "[Example 249]", "IC50": 441},
      {"smiles": "COCCN1C(=O)N(Cc2ccc3ccccc3c2)C(=O)C12CCN(Cc1ccc3ccccc3c1)CC2", "note": "[Example 250]", "IC50": 442},
      {"smiles": "O=C1N(C/C=C/c2ccccc2)C(=O)C2(CCN(Cc3cccc4ccccc34)CC2)N1CCn1cccc1", "note": "[Example 251]", "IC50": 447},
      {"smiles": "CCN1C(=O)N(CCCc2ccccc2)C(=O)C12CCN(Cc1cccc(C)c1)CC2", "note": "[Example 252]", "IC50": 448},
      {"smiles": "COCCN1C(=O)N(Cc2cc(F)cc(F)c2)C(=O)C12CCN(Cc1cc(OC)cc(OC)c1)CC2", "note": "[Example 253]", "IC50": 450},
      {"smiles": "COCCN1C(=O)N(Cc2cccc(OC)c2)C(=O)C12CCN(Cc1cccc(-c3ccco3)c1)CC2", "note": "[Example 254]", "IC50": 451},
      {"smiles": "COCCN1C(=O)N(Cc2cccc(OC)c2)C(=O)C12CCN(Cc1cc(OC)ccc1F)CC2", "note": "[Example 255]", "IC50": 452},
      {"smiles": "COCCN1C(=O)N(Cc2cccc(-n3cccc3)c2)C(=O)C12CCN(Cc1ccccc1)CC2", "note": "[Example 256]", "IC50": 469},
      {"smiles": "COCCN1C(=O)N(Cc2cccc(OC)c2)C(=O)C12CCN(Cc1ccc3c(c1)Cc1ccccc1-3)CC2", "note": "[Example 257]", "IC50": 479},
      {"smiles": "COCCN1C(=O)N(Cc2cccc(OC)c2)C(=O)C12CCN(Cc1cccc(-c3ccoc3)c1)CC2", "note": "[Example 258]", "IC50": 481},
      {"smiles": "COCCN1C(=O)N(Cc2cccc(OC)c2)C(=O)C12CCN(Cc1cccc(-c3cccc(OC)c3)c1)CC2", "note": "[Example 259]", "IC50": 484},
      {"smiles": "CCN1C(=O)N(CCCOc2ccccc2)C(=O)C12CCN(Cc1cccc3ccccc13)CC2", "note": "[Example 260]", "IC50": 486},
      {"smiles": "C#CCOc1ccc(CN2CCC3(CC2)C(=O)N(Cc2cccc(OC)c2)C(=O)N3CCOC)cc1OC", "note": "[Example 261]", "IC50": 490},
      {"smiles": "CCOc1ccccc1CN1CCC2(CC1)C(=O)N(Cc1cccc(OC)c1)C(=O)N2CCOC", "note": "[Example 262]", "IC50": 495},
      {"smiles": "COCCN1C(=O)N(Cc2ccc3ccccc3c2)C(=O)C12CCN(Cc1ccccc1)CC2", "note": "[Example 263]", "IC50": 498},
      {"smiles": "C=Cc1cccc(CN2CCC3(CC2)C(=O)N(Cc2cccc(OC)c2)C(=O)N3CCOC)c1", "note": "[Example 264]", "IC50": 500},
      {"smiles": "COc1cccc(CN2C(=O)N(CC=C(C)C)C3(CCN(Cc4cccc5ccccc45)CC3)C2=O)c1", "note": "[Example 265]", "IC50": 501},
      {"smiles": "CCN1C(=O)N(Cc2cccc(OC)c2)C(=O)C12CCN(Cc1cccc(C)c1)CC2", "note": "[Example 266]", "IC50": 510},
      {"smiles": "COCCN1C(=O)N(Cc2cccc(OC)c2)C(=O)C12CCN(Cc1cccc3cc[nH]c13)CC2", "note": "[Example 267]", "IC50": 510},
      {"smiles": "COCCN1C(=O)N(Cc2cccc(OC)c2)C(=O)C12CCN(Cc1c(F)cccc1OC)CC2", "note": "[Example 268]", "IC50": 511},
      {"smiles": "COCCN1C(=O)N(Cc2cccc(OC)c2)C(=O)C12CCN(Cc1cc(OC)ccc1OC)CC2", "note": "[Example 269]", "IC50": 513},
      {"smiles": "COCCN1C(=O)N(Cc2cccc(OC)c2)C(=O)C12CCN(Cc1cc(OC)c(Cl)cc1F)CC2", "note": "[Example 270]", "IC50": 518},
      {"smiles": "CCOc1ccc(OCC)c(CN2CCC3(CC2)C(=O)N(Cc2cccc(OC)c2)C(=O)N3CCOC)c1", "note": "[Example 271]", "IC50": 522},
      {"smiles": "CCN1C(=O)N(Cc2ccc3ccccc3c2)C(=O)C12CCN(Cc1cccc(C)c1)CC2", "note": "[Example 272]", "IC50": 525},
      {"smiles": "CCCOc1ccc(CN2CCC3(CC2)C(=O)N(Cc2cccc(OC)c2)C(=O)N3CCOC)cc1OC", "note": "[Example 273]", "IC50": 528},
      {"smiles": "COCCN1C(=O)N(Cc2cccc(OC)c2)C(=O)C12CCN(Cc1cccc(N(C)C)c1)CC2", "note": "[Example 274]", "IC50": 528},
      {"smiles": "COCCN1C(=O)N(Cc2cccc(OC)c2)C(=O)C12CCN(Cc1c(Cl)ccc(C)c1F)CC2", "note": "[Example 275]", "IC50": 532},
      {"smiles": "COCCN1C(=O)N(Cc2cccc(OC)c2)C(=O)C12CCN(Cc1cccc(N(C)c3ccccc3)c1)CC2", "note": "[Example 276]", "IC50": 538},
      {"smiles": "CCN1C(=O)N(CCCOc2ccccc2)C(=O)C12CCN(Cc1cccc(OC)c1)CC2", "note": "[Example 277]", "IC50": 540},
      {"smiles": "COCCN1C(=O)N(Cc2cccc(OC)c2)C(=O)C12CCN(Cc1ccc(F)c(OC)c1)CC2", "note": "[Example 278]", "IC50": 542},
      {"smiles": "CCN1C(=O)N(Cc2cccc(OC)c2)C(=O)C12CCN(Cc1cccc(OC)c1)CC2", "note": "[Example 279]", "IC50": 546},
      {"smiles": "CCN1C(=O)N(CCCc2ccccc2)C(=O)C12CCN(Cc1cccc3ccccc13)CC2", "note": "[Example 280]", "IC50": 546},
      {"smiles": "COc1cc(CN2CCC3(CC2)C(=O)N(Cc2cc(OC)cc(OC)c2)C(=O)N3Cc2ccc3c(c2)nnn3C)cc(OC)c1", "note": "[Example 281]", "IC50": 548},
      {"smiles": "CCN1C(=O)N(CCCc2ccccc2)C(=O)C12CCN(Cc1cccc(OC)c1)CC2", "note": "[Example 282]", "IC50": 549},
      {"smiles": "COCCN1C(=O)N(Cc2cccc(OC)c2)C(=O)C12CCN(Cc1ccc(-c3ccccc3)cc1)CC2", "note": "[Example 283]", "IC50": 550},
      {"smiles": "COCCN1C(=O)N(CCCc2ccccc2)C(=O)C12CCN(Cc1ccc3ccccc3c1)CC2", "note": "[Example 284]", "IC50": 551},
      {"smiles": "COc1cccc(CN2C(=O)N(CCCO)C3(CCN(Cc4cc(OC)cc(OC)c4)CC3)C2=O)c1", "note": "[Example 285]", "IC50": 553},
      {"smiles": "CCN1C(=O)N(Cc2ccc3ccccc3c2)C(=O)C12CCN(Cc1cccc3ccccc13)CC2", "note": "[Example 286]", "IC50": 560},
      {"smiles": "CCN1C(=O)N(CCc2cc(OC)cc(OC)c2)C(=O)C12CCN(Cc1cc(OC)cc(OC)c1)CC2", "note": "[Example 287]", "IC50": 561},
      {"smiles": "COc1cc(CN2CCC3(CC2)C(=O)N(Cc2cc(OC)cc(OC)c2)C(=O)N3Cc2ccc(-n3cccn3)cc2)cc(OC)c1", "note": "[Example 288]", "IC50": 567},
      {"smiles": "COCCN1C(=O)N(Cc2cccc(OC)c2)C(=O)C12CCN(Cc1c(F)ccc(C)c1Cl)CC2", "note": "[Example 289]", "IC50": 567},
      {"smiles": "COCCN1C(=O)N(Cc2cccc(OC)c2)C(=O)C12CCN(Cc1cccc3c1OCCO3)CC2", "note": "[Example 290]", "IC50": 568},
      {"smiles": "COCCN1C(=O)N(CCCc2ccccc2OC)C(=O)C12CCN(Cc1ccccc1)CC2", "note": "[Example 291]", "IC50": 572},
      {"smiles": "COCN1C(=O)N(Cc2cc(OC)cc(OC)c2)C(=O)C12CCN(Cc1cccc(OC)c1)CC2", "note": "[Example 292]", "IC50": 576},
      {"smiles": "COc1cccc(CN2C(=O)N(Cc3ccccc3)C3(CCN(Cc4cc(OC)cc(OC)c4)CC3)C2=O)c1", "note": "[Example 293]", "IC50": 579},
      {"smiles": "O=C1N(/C=C/Cc2ccccc2)C(=O)C2(CCN(Cc3cccc4ccccc34)CC2)N1CCO", "note": "[Example 294]", "IC50": 579},
      {"smiles": "COCCN1C(=O)N(Cc2cccc(OC)c2)C(=O)C12CCN(Cc1cccc3c4ccccc4n(C)c13)CC2", "note": "[Example 295]", "IC50": 580},
      {"smiles": "COCN1C(=O)N(/C=C/Cc2ccccc2)C(=O)C12CCN(Cc1cc(OC)cc(OC)c1)CC2", "note": "[Example 296]", "IC50": 586},
      {"smiles": "COc1cccc(CN2C(=O)N(Cc3cccc(OC)c3)C3(CCN(Cc4ccccc4)CC3)C2=O)c1", "note": "[Example 297]", "IC50": 586},
      {"smiles": "CNc1cccc(CN2CCC3(CC2)C(=O)N(Cc2cccc(OC)c2)C(=O)N3CCOC)c1", "note": "[Example 298]", "IC50": 589},
      {"smiles": "COc1cccc(CN2C(=O)N(Cc3cccc(OC)c3)C3(CCN(Cc4cccc5ccccc45)CC3)C2=O)c1", "note": "[Example 299]", "IC50": 596},
      {"smiles": "COCCN1C(=O)N(CCCc2ccccc2)C(=O)C12CCN(Cc1cccc(OC)c1)CC2", "note": "[Example 300]", "IC50": 598},
      {"smiles": "COCCN1C(=O)N(Cc2cccc(OC)c2)C(=O)C12CCN(Cc1cccc(OC)c1F)CC2", "note": "[Example 301]", "IC50": 599}
    ]}
  ]
}
